# Data: patent US20200190073A1, “SUBSTITUTED SUCCINIMIDE DERIVATIVES AS PESTICIDES” (BASF SE, priority 2017, published 2020)
# Read-outs that look alike come from different tables or passages of the source.
# Key:
# Type in all cases: in vivo
# [1] = system: Boll Weevil (Anthonomus grandis); assay: B.5 Boll weevil, insect diet with eggs; details: 120 h, read-out: mortality in comparison with untreated controls
# How it was run: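 Compounds in 75% water/25% DMSO sprayed at several concentrations (5 μl, two replicates) onto insect diet in 96-well microtiter plates holding 5-10 A. grandis eggs. After 5 days at about 25±1° C and 75±5% relative humidity, egg and larval mortality scored visually.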
# [2] = system: Rice Green Leafhopper (Nephotettix virescens); assay: B.8 Rice green leafhopper, sprayed rice seedlings; details: read-out: mortality in comparison with untreated controls
# How it was run: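 Potted rice seedlings, washed 24 h earlier, were sprayed with 5-6 ml of compound in 1:1 acetone:water plus 0.01% surfactant. Once dry, they were caged and infested with 10 adults, then held at about 28-29° C and 50-60% RH. Percent mortality was scored at 72 h.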
# [3] = system: Orchid Thrips (Dichromothrips Corbetti); assay: B.7 Orchid thrips, floral immersion; details: read-out: mortality in comparison with untreated controls
# How it was run: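 Orchid flower petals dipped in compound diluted in 1:1 acetone:water plus 0.01% v/v Kinetic HV, dried, then enclosed with about 20 adult lab-colony thrips. Held under continuous light at about 28 °C; percent mortality recorded 72 hours after treatment.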
# [4] = system: Southern Armyworm (Spodoptera eridania); assay: B.10 Southern armyworm, sprayed lima bean plants; details: 96 h, read-out: mortality in comparison with untreated controls
# Protocol: B.10 Southern Armyworm (Spodoptera eridania)
# The active compounds were formulated in cyclohexanone as a 10,000 ppm solution supplied in tubes. The tubes were inserted into an automated electrostatic sprayer equipped with an atomizing nozzle and they served as stock solutions for which lower dilutions were made in 50% acetone:50% water (v/v). A nonionic surfactant (Kinetic®) was included in the solution at a volume of 0.01% (v/v).
# Lima bean plants (variety Sieva) were grown 2 plants to a pot and selected for treatment at the 1st true leaf stage. Test solutions were sprayed onto the foliage by an automated electrostatic plant sprayer equipped with an atomizing spray nozzle. The plants were dried in the sprayer fume hood and then removed from the sprayer. Each pot was placed into perforated plastic bags with a zip closure. About 10 to 11 armyworm larvae were placed into the bag and the bags zipped closed. Test plants were maintained in a growth room at about 250C and about 20-40% relative humidity for 4 days, avoiding direct exposure to fluorescent light (24 hour photoperiod) to prevent trapping of heat inside the bags. Mortality and reduced feeding were assessed 4 days after treatment, compared to untreated control plants.
# [5] = system: Tobacco Budworm (Heliothis virescens); assay: B.4 Tobacco budworm, insect diet with eggs; details: 120 h, read-out: mortality in comparison with untreated controls
# How it was run: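 Wells held insect diet and 15–25 H. virescens eggs; compounds at several concentrations, formulated in 75:25 v/v water:DMSO, were sprayed at 10 μl onto the diet in two replicates. After 5 days at about 28±1 °C and 80±5% relative humidity, egg and larval mortality was scored visually.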
# [6] = system: Red Spider Mite (Tetranychus kanzawai); assay: B.9 Red spider mite, sprayed cowpea beans; details: read-out: mortality in comparison with untreated controls
# How it was run: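 Potted cowpea beans aged 4-5 days were sprayed with compound in 1:1 water:acetone plus 0.01% surfactant, air dried, then infested with ≥30 mites. Kept at about 25-27° C and 50-60% relative humidity; percent mortality scored 72 h after treatment.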
# [7] = system: Southern Armyworm (Spodoptera eridania), 2nd Instar Larvae; assay: CE.7 Southern armyworm, 2nd instar larvae, comparative test; details: foliar, 96 h, leaf dip, at 4 days, read-out: % mortality in comparison to untreated controls
# Protocol: The tables show % mortality in comparison to untreated controls.
# CE.7 Southern Armyworm (Spodoptera eridania), 2nd Instar Larvae
# The active compounds were formulated in 50:50 acetone:water (vol) and 100 ppm Kinetica™ surfactant.
# A pair of first true leaves of Sieva lima bean was dipped into the test solution and allowed to dry. The leaves were then placed in a plastic perforated zip enclosure bag and ten 2nd instar larvae were added. At 4 days, observations were made of mortality and reduced feeding.
# [8] = system: Diamond back moth (Plutella xylostella); assay: B.1 Diamond back moth, cabbage leaf dip; details: foliar, read-out: mortality in comparison with untreated controls
# How it was run: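 Cabbage leaves were dipped in compound in 1:1 water:acetone with 0.01% surfactant, air-dried and infested with ten 3rd-instar larvae. Mortality and feeding damage (0–100% scale) were scored 72 h after treatment.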
# [9] = system: Brown Marmorated Stink Bug (Halyomorpha halys); assay: B.13 Brown marmorated stink bug, spray; details: 120 h, read-out: mortality in comparison with untreated controls
# Protocol: B.13 Brown Marmorated Stink Bug (Halyomorpha halys)
# The active compound was dissolved at the desired concentration in a mixture of 1:1 (vol:vol) distilled water:acetone. Surfactant (Kinetic HV) was added at a rate of 0.01% (vol/vol). The test solution was prepared at the day of use.
# Row peanuts and soybean seeds were placed into microwavable plastic cups and inoculated with five adult stage H. halys. Using a hand atomizer, approximately 1 ml solution is sprayed into each cup, insects and food present. A water source was provided (cotton wick with water) Each treatment is replicated 4-fold. Assay arenas are kept at about 25° C. Percent mortality was recorded after 5 days.
# [10] = 2500 ppm, egg and larval mortality, 5 days
Compound,mortality at 2500 ppm [1],mortality at 300 ppm ([2]; 72 h),"mortality at 300 ppm ([3]; Thrips, 72 h)",mortality at 10 ppm [4],mortality at 2500 ppm [5],mortality at 300 ppm ([6]; 72 h),mortality at 3 ppm [7],mortality at 300 ppm ([8]; 72 h),mortality at 100 ppm [9],mortality at 300 ppm [4],"mortality at 2500 ppm [1, 10]","mortality at 300 ppm ([2]; 300 ppm, adults on sprayed rice seedlings, after 72 hours)","mortality at 300 ppm ([3]; 300 ppm, adult thrips, 72 hours after treatment)","mortality at 2500 ppm [5, 10]","mortality at 300 ppm ([6]; 300 ppm, 72 hours after treatment)","mortality at 300 ppm ([8]; 300 ppm, cabbage leaf dip, 3rd instar larvae, 72 hours after treatment)"
"CN1C(=O)CC(NC(=O)c2ccc(C3=NOC(c4cc(Cl)c(F)c(Cl)c4)(C(F)(F)F)C3)cc2Cl)C1=O (centres unmarked) [Compound I-1-2, 2-Chloro-4-[5-(3,5-dichloro-4-fluoro-phenyl)-5-(trifluoromethyl)-4H-isoxazol-3-yl]-N-(1-methyl-2,5-dioxo-pyrrolidin-3-yl)benzamide]",> 75%,> 75%,> 75%,> 75%,> 75%,> 75%,100%,> 75%,> 75%,–,–,–,–,–,–,–
CCN1C(=O)CC(NC(=O)c2ccc(C3=NOC(c4cc(Cl)c(F)c(Cl)c4)(C(F)(F)F)C3)cc2Cl)C1=O (centres unmarked) [Compound I-1-3],> 75%,> 75%,> 75%,> 75%,> 75%,> 75%,100%,> 75%,> 75%,–,–,–,–,–,–,–
CN1C(=O)CC(NC(=O)c2ccc(C3=NOC(c4cc(Cl)c(F)c(Cl)c4)(C(F)(F)F)C3)c3c2CCC3)C1=O (centres unmarked) [Compound I-1-10],> 75%,> 75%,> 75%,> 75%,> 75%,> 75%,100%,> 75%,–,–,–,–,–,–,–,–
CN1C(=O)C[C@@H](NC(=O)c2ccc(C3=NOC(c4cc(Cl)c(F)c(Cl)c4)(C(F)(F)F)C3)cc2Cl)C1=O (some centres unmarked) [Compound I-1-13],> 75%,> 75%,> 75%,> 75%,> 75%,> 75%,–,> 75%,> 75%,> 75%,–,–,–,–,–,–
CCN1C(=O)C[C@@H](NC(=O)c2ccc(C3=NOC(c4ccc(F)c(Cl)c4)(C(F)(F)F)C3)cc2Cl)C1=O (some centres unmarked) [Compound I-1-53],–,–,–,–,–,–,–,–,–,–,> 75%,> 75%,> 75%,> 75%,> 75%,> 75%
